Results as given in ChEMBL document CHEMBL1153619, “The role of phenolic hydroxy groups in the free radical scavenging activity of betalains” (J Nat Prod, 2009).

Tests used:
[1] = Antioxidant activity assessed as Trolox molar equivalence for reduction of Fe(III) at pH 3.6 by ferric reducing antioxidant power assay; format: functional
[2] = ABTS radical scavenging activity assessed as Trolox equivalent antioxidant capacity index at pH 7 by spectrophotometry; format: physicochemical

Row | Compound | Activity [2] | Activity [1]
1 | O=C(O[C@@H]1Cc2c(O)cc(O)cc2O[C@@H]1c1cc(O)c(O)c(O)c1)c1cc(O)c(O)c(O)c1 [EPIGALOCATECHIN GALLATE] | 4.8 | –
2 | CCC/N=C\C=C1/C=C(C(=O)O)N[C@H](C(=O)O)C1 | – | 1.1
3 | O=C(O)C1=C/C(=C\C=N/CCc2ccc(O)c(O)c2)C[C@@H](C(=O)O)N1 | – | 3.3
4 | O=C(O)C1=C/C(=C\C=N/CCc2ccccc2)C[C@@H](C(=O)O)N1 | 2.3 | 1.1

Continued, in another order:

Row | Activity [2] | Compound | Activity [1]
5 | 4.1 | O=C(O)C1=C/C(=C\C=N/CCc2cccc(O)c2)C[C@@H](C(=O)O)N1 | 2.7
6 | 4 | O=C(O)C1=C/C(=C\C=N/CCc2ccc(O)cc2)C[C@@H](C(=O)O)N1 | 1.1
7 | 2.7 | Oc1ccc(/C=C/c2cc(O)cc(O)c2)cc1 [RESVERATROL] | –
